Usually AC50 stands for the concentration giving half of the maximal activity seen.

Drawing on ChEMBL document CHEMBL1201862, “PubChem BioAssay data set” (2004), this text covers EC50 and AC50 for 31 compounds.

The subject of assay [1] is Streptococcus sp. 'group A'. Put plainly: Streptococcus pyogenes SK(-)GAS viability under kanamycin – luminescence, BacTiterGlo, confirmation, counter-screen for streptokinase expression inhibitor project, dose response (AID 1900). Format: functional, organism-based.
For assay [2], the target named is T1, Streptokinase A (Streptococcus pyogenes serotype M1, UniProt P10520).
T1 sequence (P10520 whole entry): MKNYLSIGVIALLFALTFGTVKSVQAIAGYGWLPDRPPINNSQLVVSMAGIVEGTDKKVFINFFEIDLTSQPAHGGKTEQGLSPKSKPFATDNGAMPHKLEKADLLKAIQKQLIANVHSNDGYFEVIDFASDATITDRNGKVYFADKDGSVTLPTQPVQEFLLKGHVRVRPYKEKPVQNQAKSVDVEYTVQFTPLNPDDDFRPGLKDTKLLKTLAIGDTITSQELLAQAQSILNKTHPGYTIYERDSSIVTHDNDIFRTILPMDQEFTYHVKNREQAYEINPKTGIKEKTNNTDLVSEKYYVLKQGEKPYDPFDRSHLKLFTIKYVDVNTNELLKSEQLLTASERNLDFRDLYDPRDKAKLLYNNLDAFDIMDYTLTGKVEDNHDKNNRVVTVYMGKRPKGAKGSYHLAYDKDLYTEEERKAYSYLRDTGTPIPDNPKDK
Nature of the assay: viability-normalized secreted streptokinase activity reduction – plasminogen activation absorbance, OD405, dose response (AID 1914).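 Also: secreted streptokinase activity via plasminogen activation per viability signal from cell pellet.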 Format: functional, Streptococcus pyogenes M1 GAS.

Assay [3] deals with Streptococcus. Nature of the assay: GAS UMAA2166 growth inhibition – luminescence, BacTiterGlo, counter-screen for streptokinase expression inhibitor project, dose response (AID 1915).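 Also: potency for reduction of bacterial viability or growth.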 Format: functional, organism-based.
Assay [4] concerns the target T2, Heat shock factor protein 1 (Mus musculus, UniProt P38532).
T2 sequence (P38532 whole entry): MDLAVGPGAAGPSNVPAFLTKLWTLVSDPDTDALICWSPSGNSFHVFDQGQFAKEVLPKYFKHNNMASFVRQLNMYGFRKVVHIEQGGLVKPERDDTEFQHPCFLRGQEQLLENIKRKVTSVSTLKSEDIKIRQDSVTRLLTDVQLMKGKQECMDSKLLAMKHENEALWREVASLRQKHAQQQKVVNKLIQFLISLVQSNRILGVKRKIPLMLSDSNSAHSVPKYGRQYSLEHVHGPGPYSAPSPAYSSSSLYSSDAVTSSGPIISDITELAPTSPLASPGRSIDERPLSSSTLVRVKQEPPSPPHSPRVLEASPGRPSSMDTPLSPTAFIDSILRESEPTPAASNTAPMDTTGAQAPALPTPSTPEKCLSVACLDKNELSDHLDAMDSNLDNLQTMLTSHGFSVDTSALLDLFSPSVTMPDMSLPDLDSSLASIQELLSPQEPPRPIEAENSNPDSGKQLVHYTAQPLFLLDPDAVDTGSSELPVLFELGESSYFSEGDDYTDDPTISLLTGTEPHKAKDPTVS
Nature of the assay: decrease of HSF1-responsive luciferase luminescence – cell-based, NIH3T3, dose retest, confirmation (AID 2382).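 Also: NIH3T3 fibroblasts with HSF1-driven luciferase reporter stressed by proteasome inhibitor MG132; luminescence from HSF1-driven luciferase expression after 8 hours of MG132 stress.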 Format: functional.

Assay [5] deals with T3, Cytochrome P450 1A2 (Homo sapiens, UniProt P05177).
T3 sequence (P05177 whole entry): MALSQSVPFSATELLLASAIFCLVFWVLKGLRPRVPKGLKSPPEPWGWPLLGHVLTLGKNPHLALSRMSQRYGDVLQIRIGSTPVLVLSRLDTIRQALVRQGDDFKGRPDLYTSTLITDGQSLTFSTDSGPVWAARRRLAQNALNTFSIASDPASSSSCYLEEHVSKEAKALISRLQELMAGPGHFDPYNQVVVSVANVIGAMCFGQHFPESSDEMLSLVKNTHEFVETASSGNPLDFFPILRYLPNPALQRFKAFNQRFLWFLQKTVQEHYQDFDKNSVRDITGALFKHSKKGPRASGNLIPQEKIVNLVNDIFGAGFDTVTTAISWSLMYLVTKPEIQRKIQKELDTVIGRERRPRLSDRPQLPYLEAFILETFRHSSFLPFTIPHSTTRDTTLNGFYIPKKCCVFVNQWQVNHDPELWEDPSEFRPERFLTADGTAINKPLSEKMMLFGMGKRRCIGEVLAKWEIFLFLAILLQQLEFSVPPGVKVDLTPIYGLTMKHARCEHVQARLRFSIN

In assay [6] the target is Cytochrome P450 3A4 (Homo sapiens, UniProt P08684).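 Also: CYP3A4 tested as one member of a cytochrome P450 panel screen.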
Sequence of Cytochrome P450 3A4 (P08684 whole entry): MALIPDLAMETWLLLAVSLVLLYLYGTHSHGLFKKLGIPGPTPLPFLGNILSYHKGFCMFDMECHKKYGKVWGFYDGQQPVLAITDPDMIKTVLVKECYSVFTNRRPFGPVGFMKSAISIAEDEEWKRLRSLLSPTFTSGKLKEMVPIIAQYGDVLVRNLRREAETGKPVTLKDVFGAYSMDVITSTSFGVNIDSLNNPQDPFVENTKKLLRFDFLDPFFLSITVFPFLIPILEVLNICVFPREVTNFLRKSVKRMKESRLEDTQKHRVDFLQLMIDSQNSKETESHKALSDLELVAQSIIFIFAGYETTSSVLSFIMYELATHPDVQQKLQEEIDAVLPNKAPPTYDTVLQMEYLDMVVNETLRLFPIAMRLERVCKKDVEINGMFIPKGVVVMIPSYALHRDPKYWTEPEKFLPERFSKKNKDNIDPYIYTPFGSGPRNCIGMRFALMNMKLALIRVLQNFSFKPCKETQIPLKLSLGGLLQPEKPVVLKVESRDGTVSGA
The nature of assay [7]: luciferase reporter signal suppression in cells – H4 neuroglioma cells, luminescence, dose response (AID 1990). Format: functional, cell-based.
Assay [8] is described as follows: Luminescence Cell-Based Dose Response HTS to Identify Inhibitors of 5'UTR Stem-Loop Driven Prion Protein mRNA Translation in H4 Neuroglioblastoma Cells. [Related pubchem assays: 1827 (Project Summary), 1813 (Primary HTS)]. Format: functional.
The nature of assay [9]: alpha-synuclein stem-loop luciferase translation blockers – H4 neuroglioma cells, luminescence, confirmation (AID 1988). Format: functional, cell-based.
Assay [10] can be described thus: Luminescence Cell-Based Dose Retest to Confirm Inhibitors of Cancer Stem Cells. [Related pubchem assays (depositor defined):AID2717, AID2721]. Format: functional. The conditions noted are these: Homo sapiens.
Assay [11] in a line: Trypanosoma cruzi growth suppression in host cells – NIH3T3 host cells, beta-gal luminescence, confirmation (AID 2044).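 Also: intracellular parasites grown in NIH/3T3 mouse fibroblasts as host cells; luminescent beta-galactosidase reporter signal from transgenic T. cruzi replicating inside host cells; inhibitors lower the luminescence signal.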 Format: functional, cell-based.
A short description of assay [12]: NIH3T3 cell viability loss – ATP luminescence, mouse fibroblasts, counter-screen, dose response (AID 2010).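 Also: cells exposed to compound for about 90 hours before reading.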 Format: functional, cell-based. In general terms: A counterscreen serves to expose hits that act by an unwanted route or on another target.
Assay [13] addresses T4, Corticotropin-releasing factor receptor 2/Corticotropin-releasing factor-binding protein (Homo sapiens, UniProt P24387+Q13324).
T4 sequence (Q13324 whole entry): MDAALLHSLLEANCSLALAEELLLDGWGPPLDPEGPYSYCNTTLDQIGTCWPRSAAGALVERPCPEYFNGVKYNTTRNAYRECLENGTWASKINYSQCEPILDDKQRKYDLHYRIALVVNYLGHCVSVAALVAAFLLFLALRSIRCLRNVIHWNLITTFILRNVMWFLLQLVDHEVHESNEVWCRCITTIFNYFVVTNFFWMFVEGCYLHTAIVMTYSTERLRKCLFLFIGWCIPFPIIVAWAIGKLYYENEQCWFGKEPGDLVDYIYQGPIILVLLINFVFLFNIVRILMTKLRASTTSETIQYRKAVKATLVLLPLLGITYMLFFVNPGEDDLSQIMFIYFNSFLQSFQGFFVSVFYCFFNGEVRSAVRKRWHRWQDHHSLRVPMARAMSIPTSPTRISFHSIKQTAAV
T4 sequence (P24387 whole entry): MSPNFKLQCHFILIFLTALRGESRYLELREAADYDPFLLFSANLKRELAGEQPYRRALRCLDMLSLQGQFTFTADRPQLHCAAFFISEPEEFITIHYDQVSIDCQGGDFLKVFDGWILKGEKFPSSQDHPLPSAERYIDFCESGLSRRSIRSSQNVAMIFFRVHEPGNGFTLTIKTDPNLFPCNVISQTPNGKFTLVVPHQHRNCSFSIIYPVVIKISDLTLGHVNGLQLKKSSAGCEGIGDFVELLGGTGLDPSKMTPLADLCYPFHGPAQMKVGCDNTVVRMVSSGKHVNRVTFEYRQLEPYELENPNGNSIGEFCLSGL
Nature of the assay: activators of CRF receptor 2 with binding protein – uHTS hits, confirmation (AID 602473). Format: functional. The note with it: read-out: EC50_Mean.

Active and inactive are the calls of the source. Rule as the data show it, for most assays here: actives have a measured EC50 and inactives only a lower limit.

Regarding `Fc1ccccc1CNc1cc(Cl)cc(Cl)c1`, the EC50 is 9.65 µM (active) in [1], > 150 µM (not active) in [2] and 17.8 µM (active) in assay [3].

Take `N#CCc1nn(-c2ccccc2)c2ncnc(N)c12`: the EC50 in assay [4] is 30.8 µM (active).

As to `O=C(NC1CCCCC1)NC1C2CC3CC(C2)CC1C3` (stereo unspecified), the EC50 in assay [1], in assay [2] and in assay [3] was > 150 µM (not active) in each case.

As to `CSc1cccc(NC(=O)OC2CCCCCCCCCCC2)c1`, the EC50 in assay [1] was 4.09 µM (active); in [2], 2.93 µM (active); in [3], 10.8 µM (active). Further, the results for the AC50 in assay [5] and in assay [6] were 5.01 µM (inconclusive) and 3.16 µM (inconclusive), respectively.

In the case of `O=C(Nc1cccc2ncccc12)C(Cl)(Cl)Cl`, the EC50 in assay [4] is > 195 µM (not active).

As to `O=S1(=O)N[C@H](c2ccccc2)C[C@H](c2ccc(C(F)(F)F)cc2)O1`, the EC50 in [4] is recorded as > 195 µM (not active).

With `CN(C)c1ccc(/C=N\Nc2nc(O)cc(-c3ccccc3)n2)cc1`, in [4], the EC50 was > 195 µM (not active).

In the case of `O=C(Nc1cccnc1)c1coc(=O)c2ccccc12`, the EC50 in assay [4] is reported as > 195 µM (not active).

Take `COC(=O)c1cccc(NC(=S)NCc2ccc(Cl)cc2)c1`: the EC50 in [2] was > 150 µM (not active).

`Cc1cc(C)nc(-n2c(C)nc3cc(Cl)ccc3c2=O)c1`: the EC50 in assay [4] is 35.9 µM (active).

`Cn1nc(-c2ccccc2)c(CSc2cccc(Cl)c2)c1Cl`: the EC50 in assay [2] is 19.8 µM (active); in assay [3], > 150 µM (not active).

Consider `CCCCSc1nc2c(c(=O)n1CC)SC(C)C2` (stereo unspecified), for which the EC50 in [7] was 15.3 µM (active); in assay [8], > 60 µM (not active); in assay [9] it was > 120 µM (not active).

With `Cc1cc(NC(=O)COc2coc(CN3CCN(c4ccccc4F)CC3)cc2=O)no1`, the EC50 in assay [4] is reported as > 195 µM (not active).

As to `CCOC(=O)c1ccc(NC(=O)N2CCN(S(C)(=O)=O)CC2)cc1`, in assay [4], the EC50 is on record as > 195 µM (not active).

`CCC1Sc2ccc(S(=O)(=O)Nc3ccc(OC)cc3)cc2NC1=O` (stereo unspecified): in [4], the EC50 was > 195 µM (not active).

Take `CC1Cc2cc(C(=O)C3=C(O)C(=O)N(CC4CCCO4)C3c3ccco3)ccc2O1` (stereo unspecified): the EC50 in [4] is 69.9 µM (active).

On to `CC(=O)c1cnc(SCC(=O)O)nc1C`, for which the EC50 in [7], in assay [8] and in assay [9] was > 120 µM (not active) throughout.

With `N#C/C(=C\c1c[nH]c2ccc(Br)cc12)c1ccccn1`, the EC50 was 18.7 µM (active) in assay [1], 51.6 µM (active) in assay [2] and > 150 µM (not active) in [3]. Moreover, the AC50 in [10] is 2.25 µM (active).

For the compound `SC1=NC[C@H](CC2CCCCC2)N1CC1CCCCC1`, the EC50 in assay [1] was 12.6 µM (active); in [2], 25.4 µM (active); in assay [3], 19.6 µM (active).

Take `CCCN1C(=O)COc2ccc(-c3nnc(O)c4ccccc34)cc21`: the EC50 in [7] is 22.7 µM (active); in [8] it was > 120 µM (not active); in assay [9], 30.9 µM (active).

`CCn1nc([N+](=O)[O-])c2c(-c3nc4ccccc4o3)c(N)n(CCCOC)c2c1=O`: the EC50 in assay [7], in assay [8] and in assay [9] was > 120 µM (not active) throughout.

Consider `COc1ccc([C@H]2Oc3cc(O)cc(O)c3C(=O)C2[C@@H]2C(=O)c3c(O)cc(O)cc3O[C@@H]2c2ccc(OC)cc2)cc1` (stereo partly specified), for which the EC50 in assay [1] is 2.34 µM (active); in assay [2], 1.7 µM (active); in assay [3] it was 2.42 µM (active). In addition, in assay [10], the AC50 was 7.4 µM (active).

Turning to `Cc1cccc(NC(=S)/N=C(\N)Nc2nc(C)c3ccc(C)cc3n2)c1`, the EC50 was 77.2 µM (active) in assay [1]; > 150 µM (inconclusive) in assay [2]; 2.12 µM (active) in assay [11]; > 60 µM (not active) in [12]; > 150 µM (not active) in [3].

In the case of `O=C(NCCCN1CCCC1=O)c1cccc(N2CCCC2=O)c1`, in assay [4], the EC50 was > 195 µM (not active).

As for `CCSc1nnc(-c2ccc(S(=O)(=O)NCc3cccs3)cc2)o1`, the EC50 in assay [4] is reported as > 195 µM (not active).

Regarding `O=C(CC1CCCCC1)c1c(O)c2ccccc2oc1=O`, the EC50 was 3.42 µM (active) in [1], > 150 µM (not active) in assay [2], 55 µM (active) in [3] and 7.06 µM (active) in [13].

As for `COc1ccc(Cl)cc1C(=O)NCC(=O)OCc1ccccc1`, in [4], the EC50 is reported as > 195 µM (not active).

Turning to `C/N=C1\S/C(=C\c2ccc(N3CCOCC3)c(F)c2)C(=O)N1C`, the EC50 in [1] was 5.33 µM (active); in [2], > 150 µM (not active); in assay [3], 12.2 µM (active).

With `COc1ccc(C(=O)CSc2nc(-c3ccccn3)nc(C)c2Cl)cc1`, the EC50 was 7.92 µM (active) in assay [1], > 150 µM (not active) in assay [2] and 36.4 µM (active) in assay [3].

For the compound `S=C(NCc1ccco1)N1CCN(c2nc(-c3ccc(Cl)cc3)cs2)CC1`, the values for the EC50 in [1], in [2] and in [3] were 9.38 µM (active), 36.4 µM (active) and 32.1 µM (active), respectively.

As to `COc1ccccc1OCC(=O)NNC(=S)NC(=O)c1ccco1`, the EC50 is 2.81 µM (active) in assay [1], > 150 µM (not active) in assay [2] and 41.4 µM (active) in [3].
